Test results from patent US20240101584A1, “TARGETED DELIVERY OF 1,2,4,5 TETRAOXANE COMPOUNDS AND THEIR USES” (Westlake University, priority 2021, published 2024).
Like-named read-outs stand apart in the source and are kept apart here.

Tests used:
U2OS = test: Viability IC50, U2OS cells; type: cell-based; settings: Homo sapiens, Table 12a
[1] = test system: cytosolic hydroxyl radical in MDA-MB-231 cells; test: HKOH-1r hydroxyl radical detection in MDA-MB-231 cells; type: cell-based; settings: about 5.5 h after addition
Experimental: FIG. 10 is a bar graph showing the relative mean fluorescence intensities of cells with HKOH-1r measured from the confocal images of MDA-MB-231 cells after treatment with compounds 48 and 37b, respectively. Scale bars represent 50 μm. Data are mean±s.e.m., n=20 cells for HKOH-1. Statistical significance was determined as ***P≤0.01 by Student's t test.
Reactive oxygen species is associated with the event of ferroptotic cell death. Oxidative stress induced by 48 and 37b can be indicated by the fluorogenic probe, HKOH-1r, that emits at 520 nm upon oxidation by cytosolic hydroxyl radical. By using HKOH-1r, it is possible to specify the type of ROS that tetraoxanes can produce in MDA-MB-231 cells.
Confocal images of MDA-MB-231 cells after tetraoxane treatment were captured and the relative mean fluorescence intensities of cells with HKOH-1r were quantified (FIG. 10). […] This phenomenon is consistent with one of the features of ferroptosis.

Huh7 = test: Viability IC50, Huh7 cells; type: cell-based; settings: Homo sapiens, Huh-7; Table 12a
[2] = test system: MDA-MB-231 xenograft tumors; test: Mouse xenograft breast tumors (MDA-MB-231); type: in vivo, Nude mice; settings: for histopathological observations of liver, heart, kidney, spleen and lungs: H&E staining, compared to the controls
Experimental: FIG. 12A is a graph showing the tumor volume of xenograft tumors versus time after s.c. injection of DMSO, PTX, compound 37b, or compound 48. Nude mice were injected s.c. with MDA-MB-231 cells (10^6) and randomly allocated to one of the six treatment groups (n=5): (i) DMSO, (ii) Paclitaxel (PTX), 5 mg/kg, (iii) compound 37b, 5 mg/kg, (iv) compound 37b, 10 mg/kg, (v) compound 48, 5 mg/kg, or (vi) compound 48, 10 mg/kg. When control animals (DMSO) began to appear tumor ulceration (25 days), all animals in the experiment were sacrificed and photographed.
FIG. 12B are photographs of the tumor from sacrificed animals of different treatment groups after 25 days. FIG. 12C is a graph showing the tumor weight of xenograft tumors versus time after s.c. injection of DMSO, PTX, compound 37b, or compound 48. Data are shown as mean±SEM. * P≤0.05 versus DMSO group. FIG. 12D are photographs showing the morphological observation of mice tissue treated with DMSO, paclitaxel, compound 37b, or compound 48 with H&E staining on heart, liver, kidney, lungs, and spleen tissues (200×).

MCF7 = test: Viability IC50, MCF7 cells; type: cell-based; settings: Homo sapiens, Table 12a
PLC = test: Viability IC50, PLC cells; type: cell-based; settings: Table 12a
HEK293 cells = test: MTT viability assay, HEK293 cells; type: cell-based; settings: Homo sapiens, HEK293, 48 h incubation, mean, n = 3, read-out: IC50 against HEK293 cells
bEnd.3 cells = test: MTT viability assay, bEnd.3 cells; type: cell-based, mouse; settings: Mus musculus, BEND3, 48 h incubation, mean, n = 3, read-out: IC50 against bEnd.3 cells
Experimental: (§1) The anticancer activities of the exemplary compounds listed in Example 1 were tested against human cervix Hela cells, mammary breast cancer MDA-MB-231 cells, human hepatocellular HepG2 cells, human colorectal HCT116 cells, mammary ductal T47D cells, non-cancerous NIH3T3 cells, dog's kidney MDCK cells, and mouse brain bEnd.3 cells, respectively.

MDA-MB-231 cells = test: Ferroptosis inhibitor rescue (Fer-1, liproxstatin-1) in MDA-MB-231 cells; type: cell-based; settings: 24 h; for effect of Fer-1 on MDA-MB-231 cell death: Fer-1 50 μM
Experimental: FIG. 8A is a bar graph showing the effect of Fer-1 (50 μM) on MDA-MB-231 cells treated with compounds 37b, 37a, and 30b, respectively, at the indicated concentrations for 24 h. […], **P≤0.01, ***P≤0.001 versus non-pretreated cells, N.S., no statistically significant change. Data represent mean±SD, n=3 biologically independent samples. All P values were determined using two-tailed Student's t-test.
FIG. 8B is a bar graph showing the effect of Fer-1 (50 μM) on MDA-MB-231 cells treated with compounds 6b, 48, 30a, and 37f, respectively, at the indicated concentrations for 24 h. *P≤0.01, **P≤0.002, ***P≤0.001 versus non-pretreated cells. Data represent mean±SD, n=3 biologically independent samples. FIG. 8C is a bar graph showing the effect of Fer-1 and DFO on MDA-MB-231 cells treated with compounds 56 and 53, respectively, at the indicated concentrations for 24 h. *P≤0.01, **P≤0.002, ***P≤0.001 versus non-pretreated cells. All P values were determined using two-tailed Student's t-test.
FIG. 9 is a bar graph showing the effect of liproxstatin ([…]) on MDA-MB-231 cells treated with compounds 48 and 37b, respectively, at the indicated concentrations for 24 h. **P≤0.01 versus non-pretreated cells. Data represent mean±SD, n=3 biologically independent samples. All P values were determined using two-tailed Student's t-test.
Fer-1 was used to investigate the cell death pathway induced by the compounds described herein. Liproxstatin-1 was used to further confirm whether 48 and 37b triggered off ferroptosis in MDA-MB-231 cells.

HeyA8 cells = test: CellTiter-Glo viability, adherent HeyA8 ovarian cancer cells; type: cell-based; settings: HEY A8; adherent cancer cells; CellTiter-Glo, 48 hrs, n = 3
HepG2 cells = test: MTT viability assay, HepG2 cells; type: cell-based, human
Experimental: as §1

HEY A8 cells = test: Protective effect of DFO and Fer-1 on adherent HEY A8 cells; type: cell-based; settings: 24 h treatment
Experimental: FIG. 4 is a bar graph showing the protective effect of DFO and Fer-1 on HeyA8 cancer cells after treatment with compound 48 for 24 h. *P≤0.01, ***P≤0.001 versus non-pretreated group. Data represent mean±SD, n=3 biologically independent samples. All P values were determined using two-tailed Student's t-test.

HL-60 cells = test: MTT viability assay, HL-60 cells; type: cell-based; settings: for IC50: Homo sapiens, HL-60

| Structure (SMILES) | IC50 (U2OS) | hydroxyl radical (HKOH-1r fluorescence) [1] | IC50 (Huh7) | histopathological observations of liver, heart, kidney, spleen and lungs [2] | IC50 (MCF7) | IC50 (PLC) | effect of liproxstatin-1 pretreatment on MDA-MB-231 cell death (MDA-MB-231 cells) | effect of Fer-1 on MDA-MB-231 cell death (MDA-MB-231 cells) | IC50 (HeyA8 cells) | other results |
| --- | --- | --- | --- | --- | --- | --- | --- | --- | --- | --- |
| CC(C)(C)C1CCC2(CC1)OOC1(CCC(OC(=O)NCCC[P+](c3ccccc3)(c3ccccc3)c3ccccc3)CC1)OO2.[Br-] (centres unmarked) [Compound 37b, (3-((((12-(tert-butyl)-7,8,15,16-tetraoxadispiro[5.2.59.26]hexadecan-3-yl)oxy)carbonyl)amino)propyl)triphenylphosphonium bromide] | 3.4 ± 0.2 µM | significant amount of hydroxyl radical was observed | 3.8 ± 0.9 µM | no histological alterations | 2.4 ± 1.7 µM | 2.7 ± 0.02 µM | prevented the cell death | subverted MDA-MB-231 cell death | 1.4 ± 0.07 µM | tumor growth compared with vehicle control ([2]; 10 mg/kg, MDA-MB-231 xenograft, 25 days): effective in inhibiting tumor growth; IC50 (HEK293 cells): 1.6 µM; IC50 (bEnd.3 cells): 5.2 µM; IC50 (HepG2 cells; Homo sapiens, HepG2, MTT, 48 h incubation, mean, n = 3, read-out: IC50 against HepG2 cells): 0.7 µM; fold more cytotoxic than RKA182 for HepG2 cells (HepG2 cells; comparator RKA182): 36 fold |
| CC(C)(C)C1CCC2(CC1)OOC1(CCC(OC(=O)NCCC[N+](C)(Cc3ccccc3)Cc3ccccc3)CC1)OO2.[I-] (centres unmarked) [Compound 48, N,N-dibenzyl-3-((((12-(tert-butyl)-7,8,15,16-tetraoxadispiro[5.2.59.26]hexadecan-3-yl)oxy)carbonyl)amino)-N-methylpropan-1-aminium iodide] | 4.4 ± 0.6 µM | significant amount of hydroxyl radical was observed | 5.2 ± 0.4 µM | no histological alterations | 8.7 ± 4.1 µM | 3.9 ± 0.6 µM | prevented the cell death | subverted MDA-MB-231 cell death | 2.3 ± 0.7 µM | tumor size ([2]; 5 mg/kg and 10 mg/kg, MDA-MB-231 xenograft, 25 days): reduced the tumor size; abnormal behavior or weight loss during treatment period ([2]; MDA-MB-231 xenograft mice, entire treatment period): no abnormal behavior or weight loss; effect of DFO or Fer-1 pretreatment on induced cell death, adherent HEY A8 cells (HEY A8 cells): reversed the cell death; IC50 (HL-60 cells; MTT, 48 h incubation, mean, n = 3, read-out: IC50 against HL-60 cells): 1.2 ± 0.9 µM; IC50 (HL-60 cells; Table 12b, read-out: IC50 HL-60): 1.2 ± 0.9 µM; IC50 (HL-60 cells; Table 13, experimental data, MTT, 48 hrs, n = 3, read-out: IC50 HL-60): 1.2 ± 0.9 µM; selectivity index (IC50 of NIH3T3 divided by IC50 on HL-60) (HL-60 cells; Table 13, value in bracket): (>24); fold more cytotoxic to HL-60 cells than OZ439 (HL-60 cells; comparator OZ439): at least 9 fold; fold more potent than RKA182 in HL-60 cells (HL-60 cells; comparator RKA182): 9 fold |
